Activity data for 1 molecule are collected here from ChEMBL document CHEMBL5385929, “Tabersonine Enhances Olaparib Sensitivity through FHL1-Mediated Epithelial-Mesenchymal Transition in an Ovarian Tumor” (J Nat Prod, 2024).

The source made the active and inactive calls. No cut-off for these calls is given here.

What all share (assay type): functional, cell-based
In test [1] the test system is A2780. Nature of the test: Effect on FHL1 mRNA expression in human A2780 cells at 5 to 20 uM by real-time PCR analysis. To be noted: dose 5-20 µM.
Test [2] deals with A2780. The experiment in a line: Potentiation of olaparib sensitivity in human A2780 cells transfected with shFLH1-1 RNA assessed as downregulation of EMT signaling by measuring E-cadherin protein expression at 10 uM in presence of olaparib by western blot analysis. Background: In western blotting, separated proteins are transferred to a membrane and probed.
The subject of the next test is SK-OV-3. The experiment in a line: Increase in FHL1 protein stability in human SK-OV-3 cells at 10 uM measured after 6 to 24 hrs in presence of cycloheximide by CHX chase assay based western blot analysis. To be noted: time 6-24 hrs.
Test [3] has as its system A2780. Nature of the test: Potentiation of olaparib sensitivity in human A2780 cells transfected with shFHL1-1 RNA assessed as inhibition of cell migration at 10 uM measured after 24 to 48 hrs in presence of olaparib by wound healing assay. As to conditions: time 24-48 hrs.

With `CC[C@]12C=CCN3CC[C@]4(C(=C(C(=O)OC)C1)Nc1ccccc14)[C@@H]32` [TABERSONINE], the result with A2780 [1], in the test on A2780 [2] and in the test on A2780 [3] was inactive. For the same molecule, in the test with SK-OV-3, the outcome was Active.
